In doi:10.1101/810010v1 (biorxiv, 2019) one finds Kd data, which are given here for one compound.

Molecules are shown by their SMILES.

For the experiment, the target named is Syt1 C2B (Mus musculus, UniProt P46096). Description: […]-1H HSQC NMR titration, global fit of chemical shifts, single-site model. The format is binding.
Syt1 C2B, sequence (P46096 271-421): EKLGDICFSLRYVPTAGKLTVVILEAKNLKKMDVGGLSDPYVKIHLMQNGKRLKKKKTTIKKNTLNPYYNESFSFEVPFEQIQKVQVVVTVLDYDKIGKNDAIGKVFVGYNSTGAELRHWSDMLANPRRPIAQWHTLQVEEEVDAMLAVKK

For orientation: Kd means the free concentration of one partner at which half of the binding sites on the other are occupied at equilibrium, for simple one-to-one binding. Take `CCCC(=O)OC[C@H](COP(=O)(O)O[C@@H]1[C@H](O)[C@H](O)[C@@H](OP(=O)(O)O)[C@H](OP(=O)(O)O)[C@H]1O)OC(=O)CCC` [di-C4-PtdIns(4,5)P2]: the Kd was determined as 215 ± 16 µM.
